The structures appear in SMILES notation. ≈ marks a conversion by molar mass, not a printed value.

Common to all, as to format: cell-based
Assay [1] has as its system Streptococcus pneumoniae IID554. The assay is described as follows: MIC assay, modified agar dilution (CLSI), S. pneumoniae IID554. The settings on record: for susceptibility of S. pneumoniae IID554 based on MIC interpretive standards defined by CLSI: reference antibiotics. The procedure:
(§1) The potency of antibacterial agents was measured using the Minimal Inhibitory Concentration (MIC) assay. The assay measures the ability of test agents to inhibit the growth of bacteria on agar-containing medium.
(§2) The bacterial test strains used were exemplified by Staphylococcus aureus Smith, Enterococcus faecium A2373, Streptococcus pneumoniae IID554, and Escherichia coli ATCC 25922. All strains were maintained as frozen stocks held at −80° C. in skim milk. Other bacterial test strains are well known to those skilled in the art and can be used for testing.
(§3) Mueller Hinton Agar (MHA BBL; Becton Dickinson and Company, Sparks, Md.) was used as the medium. MHA was supplemented with 5% defibrinated horse blood (DHB; Nippon Biotest Laboratories inc.) to support the growth of S. pneumoniae and E. faecium.
(§4) MIC values were determined using a modified agar dilution procedure described by the Clinical and Laboratory Standards Institute (CLSI; Methods for Dilution Antimicrobial Susceptibility Tests for Bacteria That Grow Aerobically; Approved Standard—Eighth Edition. CLSI document M07-A8 [ISBN 1-56238-689-1]. Clinical and Laboratory Standards Institute, 940 West Valley Road, Suite 1400, Wayne, Pa. 19087-1898 USA, 2009).
(§5) Stock solutions (6.4 mgmL) of test compounds were prepared in 100% ultrapure dimethyl sulfoxide (DMSO; source) on the day of the assay. Subsequent serial dilutions were performed to generate solutions with concentrations ranging from 6.4 to 0.0002 mgmL in 100% DMSO.
Agar medium containing test compound was prepared by adding the dilutions of antimicrobial solution to molten MHA at a temperature of 45-50° C. The agar and antimicrobial solution were mixed thoroughly, poured into petri dishes, and allowed to solidify at room temperature. The final concentration of test compounds in the MHA medium ranged from 128 to 0.001 μg/mL with two-fold dilutions. MHA plates lacking antibacterial compound were used for growth controls.
Prior to susceptibility testing, the bacterial isolates were removed from frozen storage, thawed at room temperature, sub-cultured to MHA medium and incubated overnight at 35° C. S. pneumoniae and E. faecium were subcultured on MHA supplemented with 5% DHB at 35° C. with […]. Colonies from each plate were suspended in normal saline. This suspension was adjusted to the turbidity of a 0.5 McFarland standard, 1-2×10^8 colony forming units (CFU) per mL, and diluted 100-fold to 1-2×10^6 CFUmL.
Suspensions of bacterial cultures were applied to the surface of MHA plates containing test compound as well as to a growth control plate lacking test compound using an inoculum-replicating device with 4 mm pins. The replicating device applied 5 uL of the bacterial suspension such that each spot contained approx. 1×10^4 CFU. […]
(In general: Agar dilution tests growth on a series of plates holding different concentrations.)

Assay [2] has as its system Staphylococcus aureus Smith. The assay is described as follows: MIC assay, modified agar dilution (CLSI), S. aureus Smith. The settings on record: for MIC: Staphylococcus aureus, agar dilution, 35° C., 16-20 hr, lowest concentration that completely inhibited growth, read-out: S_aureus_Smith_WT_MIC; for susceptibility of S. aureus Smith based on MIC interpretive standards defined by CLSI: reference antibiotics. In a few lines:
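Agar dilution per CLSI on Mueller Hinton agar (plus 5% horse blood for S. pneumoniae and E. faecium), compound 128 to 0.001 μg/mL in two-fold steps. Spots of ~1×10^4 CFU incubated at 35 °C for 16-20 hr before MIC scoring.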

The test system of assay [3] is Pseudomonas aeruginosa PAO1. The assay can be described thus: MIC assay, modified agar dilution (CLSI), P. aeruginosa PAO1. As to the method:
as §1, §3, §4, §5
(§6) Agar medium containing test compound was prepared by adding the dilutions of antimicrobial solution to molten MHA at a temperature of 45-50° C. […]

Assay [4] deals with Escherichia coli ATCC 25922. The assay can be described thus: MIC assay, modified agar dilution (CLSI), E. coli ATCC 25922. As to the method: as §1, §2, §3, §4
(§7) Stock solutions (6.4 mgmL) of test compounds were prepared in 100% ultrapure dimethyl sulfoxide (DMSO; source) on the day of the assay. […]

The next assay has as its system A_bau_IID876. The assay can be described thus: MIC assay, modified agar dilution (CLSI), A_bau_IID876. The procedure:
as §1, §3, §4, §5, §6

For assay [5], the system named is Enterococcus faecium A2373. The assay is described as follows: MIC assay, modified agar dilution (CLSI), E. faecium A2373. The settings on record: reference antibiotics. The procedure: as §1, §2, §3, §4, §7

In turn, `COc1ccc2ncc(F)c(CC(O)C34CCC(NCc5ccc6c(n5)NC(=O)CO6)(CC3)CO4)c2n1.Cl` (single isomer, unassigned) [Example 20a, 6-((1-(2-(3-Fluoro-6-methoxy-1,5-naphthyridin-4-yl)-1-hydroxyethyl)-2-oxabicyclo[2.2.2]octan-4-ylamino)methyl)-2H-pyrido[3,2-b][1,4]oxazin-3(4H)-one Hydrochloride] yielded a Strep_Pn_IID554_WT_MIC in assay [1] (agar dilution, MHA with 5% defibrinated horse blood) of 0.250 µg/mL. In addition, in assay [2], the MIC worked out at 0.063 µg/mL. In assay [3], this compound came in with a P_ae_PAO1_WT_MIC of 16.0 µg/mL. The compound further had an E_coli_ATCC25922_WT_MIC in assay [4] of 4.00 µg/mL. This compound also displayed an A_bau_IID876_WT_MIC in the assay on A_bau_IID876 of 1.00 µg/mL.

As for `N#Cc1ccc2c(c1)N(CCC13CCC(NCc4ccc5c(n4)NC(=O)CO5)(CC1)CO3)C(=O)CO2` [Example 202, 1-(2-(6-Cyano-3-oxo-2H-benzo[b][1,4]oxazin-4(3H)-yl)ethyl)-N-((3-oxo-3,4-dihydro-2H-pyrido[3,2-b][1,4]oxazin-6-yl)methyl)-2-oxabicyclo[2.2.2]octan-4-aminium chloride], in assay [2], the MIC came to 0.25 µg/mL.

Turning to `O=C1COc2ccc(CNC34CCC(CCN5C(=O)COc6ccc(Br)cc65)(CC3)OC4)nc2N1` [Example 203, 1-(2-(6-Bromo-3-oxo-2H-benzo[b][1,4]oxazin-4(3H)-yl)ethyl)-N-((3-oxo-3,4-dihydro-2H-pyrido[3,2-b][1,4]oxazin-6-yl)methyl)-2-oxabicyclo[2.2.2]octan-4-aminium chloride], the MIC in assay [2] turned out to be 0.25 µg/mL.

Take `COc1ccc2ncc(F)c(C[C@H](O)C34CCC(NCc5ccc6c(c5)NC(=O)CS6)(CC3)CO4)c2n1.Cl` [Example 204, (S)-1-(2-(3-Fluoro-6-methoxy-1,5-naphthyridin-4-yl)-1-hydroxyethyl)-N-((3-oxo-3,4-dihydro-2H-benzo[b][1,4]thiazin-6-yl)methyl)-2-oxabicyclo[2.2.2]octan-4-aminium chloride]: the MIC in assay [2] was 0.06 µg/mL. Still for that read-out and setting: in the case of `COc1ccc2ncc(F)c(C[C@H](O)C34CCC(NCc5ccc6c(c5)NC(=O)CS6(=O)=O)(CC3)CO4)c2n1` [Example 205, (S)—N-((1,1-Dioxido-3-oxo-3,4-dihydro-2H-benzo[b][1,4]thiazin-6-yl)methyl)-1-(2-(3-fluoro-6-methoxy-1,5-naphthyridin-4-yl)-1-hydroxyethyl)-2-oxabicyclo[2.2.2]octan-4-aminium chloride] it was 2 µg/mL. As for `COc1ccc2ncc(F)c(C[C@H](O)C34CCC(NCc5ccc6c(n5)NCCO6)(CC3)CO4)c2n1` [Example 206, (S)-6-(((1-(2-(3-Fluoro-6-methoxy-1,5-naphthyridin-4-yl)-1-hydroxyethyl)-2-oxabicyclo[2.2.2]octan-4-yl)ammonio)methyl)-3,4-dihydro-2H-pyrido[3,2-b][1,4]oxazin-4-ium chloride], the MIC in assay [2] was determined as 0.06 µg/mL.

As for `COc1ccc2ncc(F)c(CCC34CCC(NCc5ccc6c(n5)OCCN6)(CC3)CO4)c2n1` [Example 207, 6-(((1-(2-(3-Fluoro-6-methoxy-1,5-naphthyridin-4-yl)ethyl)-2-oxabicyclo[2.2.2]octan-4-yl)ammonio)methyl)-2,3-dihydro-1H-pyrido[2,3-b][1,4]oxazin-1-ium chloride], in assay [2], the MIC was determined as 0.5 µg/mL.

On to `COc1ccc2ncc(F)c(C(O)CC34CCC(NCc5ccc6c(n5)NC(=O)CO6)(CC3)CS4)c2n1` (stereo not shown) [Example 208, 6-(((1-(2-(3-Fluoro-6-methoxy-1,5-naphthyridin-4-yl)-2-hydroxyethyl)-2-thiabicyclo[2.2.2]octan-4-yl)amino)methyl)-2H-pyrido[3,2-b][1,4]oxazin-3(4H)-one], for which the MIC in assay [2] is 0.06 µg/mL (≈ 0.114 µM). Regarding `CC(O)(CC12CCC(NCc3ccc4c(n3)NC(=O)CO4)(CC1)CO2)c1c(F)cnc2ccc(OCCO)nc12` (stereo not shown) [Example 209, 1-(2-(3-Fluoro-6-(2-hydroxyethoxy)-1,5-naphthyridin-4-yl)-2-hydroxypropyl)-N-((3-oxo-3,4-dihydro-2H-pyrido[3,2-b][1,4]oxazin-6-yl)methyl)-2-oxabicyclo[2.2.2]octan-4-aminium chloride], the MIC in assay [2] is 8 µg/mL. As for `O=C1COc2ccc(CNC34CCC(CC(O)c5c(F)cnc6ccc(OCCCO)nc56)(CC3)OC4)nc2N1` (stereo not shown) [Example 210, 1-(2-(3-Fluoro-6-(3-hydroxypropoxy)-1,5-naphthyridin-4-yl)-2-hydroxyethyl)-N-((3-oxo-3,4-dihydro-2H-pyrido[3,2-b][1,4]oxazin-6-yl)methyl)-2-oxabicyclo[2.2.2]octan-4-aminium chloride], in assay [2], the MIC was 0.25 µg/mL.

With `Cl.O=C1COc2ccc(CNC34CCC(CCn5c(=O)ccc6ncc(OCC7CC7C(=O)O)cc65)(CC3)OC4)nc2N1` (stereo not shown) [Example 283, 2-((6-Oxo-5-(2-(4-((3-oxo-3,4-dihydro-2H-pyrido[3,2-b][1,4]oxazin-6-yl)methylamino)-2-oxabicyclo[2.2.2]octan-1-yl)ethyl)-5,6-dihydro-1,5-naphthyridin-3-yloxy)methyl)cyclopropanecarboxylic Acid Hydrochloride], the MIC in assay [2] is 16 µg/mL. Same read-out and setting: in the case of `COc1ccc2ncc(F)c(CCC34CCC(NCc5cc6c(F)ccc(F)c6nc5OC)(CC3)CO4)c2n1` [Example 288, N-((5,8-Difluoro-2-methoxyquinolin-3-yl)methyl)-1-(2-(3-fluoro-6-methoxy-1,5-naphthyridin-4-yl)ethyl)-2-oxabicyclo[2.2.2]octan-4-amine] it was 0.125 µg/mL (≈ 0.232 µM); in that of `O=C1COc2ccc(CNC34CCC(CCc5c(F)cnc6ccc(N7CCOC7=O)nc56)(CC3)OC4)nc2N1` [Example 292, 6-((1-(2-(3-Fluoro-6-(2-oxooxazolidin-3-yl)-1,5-naphthyridin-4-yl)ethyl)-2-oxabicyclo[2.2.2]octan-4-ylamino)methyl)-2H-pyrido[3,2-b][1,4]oxazin-3(4H)-one], 0.125 µg/mL (≈ 0.228 µM). Same read-out and setting: in the case of `O=C1COc2ccc(CNC34CCC(CCc5c(F)cnc6ccc(N7CCC(O)CC7)nc56)(CC3)OC4)nc2N1` [Example 293, 6-((1-(2-(3-Fluoro-6-(4-hydroxypiperidin-1-yl)-1,5-naphthyridin-4-yl)ethyl)-2-oxabicyclo[2.2.2]octan-4-ylamino)methyl)-2H-pyrido[3,2-b][1,4]oxazin-3(4H)-one] it was 0.5 µg/mL (≈ 0.889 µM). Take `O=C1COc2ccc(CNC34CCC(CCc5c(F)cnc6ccc(N7CC[C@H](O)C7)nc56)(CC3)OC4)nc2N1` [Example 294, (S)-6-((1-(2-(3-Fluoro-6-(3-hydroxypyrrolidin-1-yl)-1,5-naphthyridin-4-yl)ethyl)-2-oxabicyclo[2.2.2]octan-4-ylamino)methyl)-2H-pyrido[3,2-b][1,4]oxazin-3(4H)-one]: the MIC in assay [2] was 0.125 µg/mL (≈ 0.228 µM). With `CC(=O)NC[C@H]1CN(c2ccc(N3CCOCC3)c(F)c2)C(=O)O1` [linezolid, reference compound], in assay [1], the “susceptibility of S. pneumoniae IID554 based on MIC interpretive standards defined by CLSI” value is recorded as “susceptible”. For the same compound, the “susceptibility of S. aureus Smith based on MIC interpretive standards defined by CLSI” value in assay [2] is reported as “susceptible”. The “susceptibility of E. faecium A2373” value in assay [5] was “susceptible”.

Consider `CN[C@H](CC(C)C)C(=O)N[C@H]1C(=O)N[C@@H](CC(N)=O)C(=O)N[C@H]2C(=O)N[C@H]3C(=O)N[C@H](C(=O)N[C@H](C(=O)O)c4cc(O)cc(O)c4-c4cc3ccc4O)[C@H](O)c3ccc(c(Cl)c3)Oc3cc2cc(c3O[C@@H]2O[C@H](CO)[C@@H](O)[C@H](O)[C@H]2O[C@H]2C[C@](C)(N)[C@H](O)[C@H](C)O2)Oc2ccc(cc2Cl)[C@H]1O` [vancomycin, reference compound], for which, in assay [1], the “susceptibility of S. pneumoniae IID554 based on MIC interpretive standards defined by CLSI” value is recorded as “susceptible”. Also, the “susceptibility of S. aureus Smith based on MIC interpretive standards defined by CLSI” value in assay [2] was “susceptible”. Further, in assay [5], the “susceptibility of E. faecium A2373” value is “resistant”.

Source of the values: US20140243302A1, “BRIDGED BICYCLIC COMPOUNDS FOR THE TREATMENT OF BACTERIAL INFECTIONS” (priority 2011, published 2014).
